Source: patent US7691901B2, “Carotenoid analogs or derivatives for the inhibition and amelioration of inflammation” (Cardax Pharmaceuticals Inc., priority 2004, dated 2010)

How the values were obtained:
[1] = test system: superoxide anion; experiment: Direct superoxide anion scavenging by EPR spectroscopy (DEPMPO spin-trap) in PMA-stimulated isolated human neutrophils; assay type: cell-based; details: aqueous phase; statistical mixture of stereoisomers and individual stereoisomers
Method: Leukocyte Isolation and Preparation. Human polymorphonuclear leukocytes (PMNs) were isolated from freshly sampled venous blood of a single volunteer by Percoll density gradient centrifugation as described previously. Briefly, each 10 mL of whole blood was mixed with 0.8 mL of 0.1 M EDTA and 25 mL of saline. The diluted blood was then layered over 9 mL of Percoll at a specific density of 1.080 g/mL. After centrifugation at 400×g for 20 min at 20° C., the plasma, mononuclear cell, and Percoll layers were removed. Erythrocytes were subsequently lysed by addition of 18 mL of ice-cold water for 30 s, followed by 2 mL of 10× PIPES buffer (25 mM PIPES, 110 mM NaCl, and 5 mM KCl, titrated to pH 7.4 with NaOH). Cells were then pelleted at 4° C., the supernatant was decanted, and the procedure was repeated. After the second hypotonic cell lysis, cells were washed twice with PAG buffer [PIPES buffer containing 0.003% human serum albumin (HSA) and 0.1% glucose]. Afterward, PMNs were counted by light microscopy on a hemocytometer. The isolation yielded PMNs with a purity of >95%. The final pellet was then suspended in PAG-CM buffer (PAG buffer with 1 mM CaCl2 and 1 mM MgCl2). EPR Measurements. All EPR measurements were performed using a Bruker ER 300 EPR spectrometer operating at X-band with a TM110 cavity as previously described. The microwave frequency was measured with a Model 575 microwave counter (EIP Microwave, Inc., San Jose, Calif.). To measure superoxide anion (O2) generation from phorbol-ester (PMA)-stimulated PMNs, EPR spin-trapping studies were performed using the spin trap DEPMPO (Oxis, Portland, Oreg.) at 10 mM. 1×10^6 PMNs were stimulated with PMA (1 ng/mL) and loaded into capillary tubes for EPR measurements. To determine the radical scavenging ability of 3 and 9 in aqueous and ethanolic formulations, PMNs were pre-incubated for 5 minutes with test compound, followed by PMA stimulation.
Instrument settings used in the spin-trapping experiments were as follows: modulation amplitude, 0.32 G; time constant, 0.16 s; scan time, 60 s; modulation frequency, 100 kHz; microwave power, 20 milliwatts; and microwave frequency, 9.76 GHz. The samples were placed in a quartz EPR flat cell, and spectra were recorded. The component signals in the spectra were identified and quantified as reported previously.

[2] = test system: o-tyrosine (oY/F); experiment: Thioglycollate/Zymosan-induced peritonitis model: molar ratios of o-tyrosine (oY/F); assay type: in vivo, mice
Method: (§1) Thioglycollate/Zymosan—Induced Peritonitis Model: Wild-type mice were administered either 500 mg/kg body weight of disodium disuccinate astaxanthin (ddAst/Cardax™) in an oil emulsion vehicle, or normal saline (NS) as a negative control, by oral gavage at 24 hours intervals beginning 7 days prior to the induction of peritonitis. Peritonitis was induced experimentally as follows: mice were injected intraperitoneally with 1 ml of 4% by weight thioglycollate (Tg) broth, to induce the recruitment of proinflammatory cells to the peritoneum. Either 16 hours or 72 hours after recruitment, approximately half of the mice were injected intraperitoneally with 250 mg/kg body weight of zymosan (Z) for a further 4 hours. The mice not receiving zymosan underwent no further treatment. Peritoneal lavage was performed in control animals or animals treated with (ddAst) 16 hours post Tg injection, or 20 h following the combination of both Tg injection (16 hours) followed by Z injection (4 hours), as indicated (Tg/Z). Peritoneal lavages were performed with phosphate-buffered saline containing antioxidant (0.1 mM butylated hydroxytoluene (BHT)) and 2 mM of the metal chelator diethylenetriamine pentaacetic acid (DTPA) according to established practices in the art. The lavage suspensions were transferred to screw-capped tubes under an argon atmosphere, and immediately centrifuged at 1000 rpm in a table top microcentrifuge for 10 min at 4° C. to remove whole cells and debris. All analyses of lipid peroxidation products was performed on cell-free lavage supernatants. Cell pellets were resuspended in phosphate-buffered saline containing 0.1 mM BHT and 0.1 mM DTPA, and differential cell counts (macrophages, monocytes, eosinophils, lymphocytes, neutrophils, and erythrocytes) were performed on cytospun preparations of isolated cells according to established procedures in the art.
Electrospray ionization tandem mass spectrometry was used to simultaneously quantify individual molecular species of HETEs, HPETEs, the prostaglandin PGF2α, F2-isoprostanoids, hydroxy- and hydroperoxy-octadecadienoic acids (H(P)ODEs), and their precursors, arachidonic acid (AA) and linoleic acid (LA). Additionally, the molar ratios of o-tyrosine (oY/F). were measured.

[3] = Single- and multiple-dose pharmacokinetics of an oral preparation in a murine model; assay type: in vivo; details: oral preparation of the racemic compound in lipophilic emulsion
[4] = test system: differential cell counts (macrophages, monocytes, eosinophils, lymphocytes, neutrophils, and erythrocytes); experiment: Thioglycollate/Zymosan-induced peritonitis model: differential cell counts of peritoneal lavage cells; assay type: in vivo, mice; design: RBC, MEAN / RBC, MEDIAN / WBC, MEAN / WBC, MEDIAN: unit not given here
Method: as §1

[5] = test system: ischemia-reperfusion injury; experiment: Ischemia-reperfusion injury, experimental infarction model; assay type: in vivo, rodents; details: intravenous pretreatment
[6] = 16 Hour Thioglycollate/4 Hour Zymosan
[7] = 72 Hour Thioglycollate/4 Hour Zymosan

CC1=C(/C=C/C(C)=C/C=C/C(C)=C/C=C/C=C(C)/C=C/C=C(C)/C=C/C2=C(C)C(=O)C(OC(=O)CCC(=O)O)CC2(C)C)C(C)(C)CC(OC(=O)CCC(=O)O)C1=O (stereo not shown) [Cardax, disodium disuccinate astaxanthin]
direct scavenging of superoxide anion [1]: potent direct scavengers of superoxide anion in the aqueous phase
oY/F (mmol/mol), MEAN [2, 6]: 0.145 mmol/mol
oY/F (mmol/mol), MEDIAN [2, 6]: 0.117 mmol/mol
oY/F (mmol/mol), MEAN ([2]; 16 Hour Thioglycollate): 0.678 mmol/mol
oY/F (mmol/mol), MEDIAN ([2]; 16 Hour Thioglycollate): 0.521 mmol/mol
oY/F (mmol/mol), MEAN [2, 7]: 0.249 mmol/mol
oY/F (mmol/mol), MEDIAN [2, 7]: 0.118 mmol/mol
oY/F (mmol/mol), MEAN ([2]; 72 Hour Thioglycollate): 0.257 mmol/mol
oY/F (mmol/mol), MEDIAN ([2]; 72 Hour Thioglycollate): 0.198 mmol/mol
oY/F compared to NS ([2]; 16 hours Tg/4 hour Z, 500 mg/kg oral gavage): significant decrease
oY/F (mmol/mol), MEAN ([2]; Baseline): 0.595 mmol/mol
oY/F (mmol/mol), MEDIAN ([2]; Baseline): 0.565 mmol/mol
plasma and tissue levels of nonesterified astaxanthin [3]: significant plasma and tissue levels of nonesterified astaxanthin were achieved
ALV MAC %, MEAN ([4]; 16 Hour Thioglycollate): 3.000%
EOSIN %, MEAN ([4]; 16 Hour Thioglycollate): 6.000%
LYMPHS %, MEAN ([4]; 16 Hour Thioglycollate): 23.000%
MONOS %, MEAN ([4]; 16 Hour Thioglycollate): 39.667%
NEUTRO %, MEAN ([4]; 16 Hour Thioglycollate): 25.333%
OTHER %, MEAN ([4]; 16 Hour Thioglycollate): 2.667%
RBC, MEAN ([4]; 16 Hour Thioglycollate): 449.33
REACTIVE %, MEAN ([4]; 16 Hour Thioglycollate): 0.333%
RES EP %, MEAN ([4]; 16 Hour Thioglycollate): 0.000%
WBC, MEAN ([4]; 16 Hour Thioglycollate): 528.67
ALV MAC %, MEDIAN ([4]; 16 Hour Thioglycollate): 3.000%
EOSIN %, MEDIAN ([4]; 16 Hour Thioglycollate): 4.000%
LYMPHS %, MEDIAN ([4]; 16 Hour Thioglycollate): 19.000%
MONOS %, MEDIAN ([4]; 16 Hour Thioglycollate): 35.000%
NEUTRO %, MEDIAN ([4]; 16 Hour Thioglycollate): 21.000%
OTHER %, MEDIAN ([4]; 16 Hour Thioglycollate): 2.000%
RBC, MEDIAN ([4]; 16 Hour Thioglycollate): 350.00
REACTIVE %, MEDIAN ([4]; 16 Hour Thioglycollate): 0.000%
RES EP %, MEDIAN ([4]; 16 Hour Thioglycollate): 0.000%
WBC, MEDIAN ([4]; 16 Hour Thioglycollate): 475.00
ALV MAC %, MEAN ([4]; 72 Hour Thioglycollate): 15.667%
EOSIN %, MEAN ([4]; 72 Hour Thioglycollate): 1.667%
LYMPHS %, MEAN ([4]; 72 Hour Thioglycollate): 53.000%
MONOS %, MEAN ([4]; 72 Hour Thioglycollate): 27.000%
NEUTRO %, MEAN ([4]; 72 Hour Thioglycollate): 0.000%
OTHER %, MEAN ([4]; 72 Hour Thioglycollate): 2.333%
RBC, MEAN ([4]; 72 Hour Thioglycollate): 90.333
REACTIVE %, MEAN ([4]; 72 Hour Thioglycollate): 0.333%
RES EP %, MEAN ([4]; 72 Hour Thioglycollate): 0.000%
WBC, MEAN ([4]; 72 Hour Thioglycollate): 435.33
ALV MAC %, MEDIAN ([4]; 72 Hour Thioglycollate): 15.000%
EOSIN %, MEDIAN ([4]; 72 Hour Thioglycollate): 1.000%
LYMPHS %, MEDIAN ([4]; 72 Hour Thioglycollate): 55.000%
MONOS %, MEDIAN ([4]; 72 Hour Thioglycollate): 32.000%
NEUTRO %, MEDIAN ([4]; 72 Hour Thioglycollate): 0.000%
OTHER %, MEDIAN ([4]; 72 Hour Thioglycollate): 2.000%
RBC, MEDIAN ([4]; 72 Hour Thioglycollate): 69.000
REACTIVE %, MEDIAN ([4]; 72 Hour Thioglycollate): 0.000%
RES EP %, MEDIAN ([4]; 72 Hour Thioglycollate): 0.000%
WBC, MEDIAN ([4]; 72 Hour Thioglycollate): 448.00
cardioprotection [5]: significantly cardioprotective
myocardial salvage ([5]; highest dose tested): up to 56%
